These results are taken from patent US7998978B2 (Pfizer Inc., priority 2006, dated 2011).

The structures appear in SMILES notation.

One may read the inhibition as the percentage by which the read-out fell short of the control. As a reminder, the Ki is the equilibrium dissociation constant of an inhibitor or competing ligand from its target.

For one experiment, the target named is T1, JNK1α1 (Homo sapiens, UniProt P45983).
T1 construct: catalytic domain containing amino acids 1-364 and N-terminal hexahistidine tag; hexahistidine (His6) (N); made in house; host or cells: E. coli BL21 (DE3)
T1 sequence (P45983 1-364): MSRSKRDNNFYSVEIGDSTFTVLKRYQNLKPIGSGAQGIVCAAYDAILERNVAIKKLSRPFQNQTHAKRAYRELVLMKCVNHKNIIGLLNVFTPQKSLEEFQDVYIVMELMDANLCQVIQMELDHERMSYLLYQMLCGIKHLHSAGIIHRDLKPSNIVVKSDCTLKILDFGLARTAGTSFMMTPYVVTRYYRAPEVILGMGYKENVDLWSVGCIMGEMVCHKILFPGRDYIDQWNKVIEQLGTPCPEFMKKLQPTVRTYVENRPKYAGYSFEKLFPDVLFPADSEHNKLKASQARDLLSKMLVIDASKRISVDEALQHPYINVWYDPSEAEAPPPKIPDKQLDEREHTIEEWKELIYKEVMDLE
Description: Coupled spectrophotometric (PK/LDH) JNK1α1 assay: % inhibition and Ki determination. Format: biochemical. Conditions: @1 uM; read-out: % Inhibition JNK-1. The gist of the method:
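Initial rates were taken from the absorbance decrease at 340 nm at 30° C. Ki was fitted with a tight-binding model over 11 concentrations (top 100 μM); single-point inhibition was tested at 1 or 10 μM.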
Consider `O=C(NCCN1CCCC1=O)c1cccc2cnc(N[C@H]3CC[C@H](O)CC3)nc12` [Example 493, 2-[(trans-4-hydroxycyclohexyl)amino]-N-(2-(2-oxopyrrolidin-1-yl)ethyl]quinazoline-8-carboxamide], for which the inhibition at 1 µM was determined as 11%. Take `O[C@H]1CC[C@H](Nc2ncc3ccc(OC[C@@H]4CCCN5CCCC[C@H]45)cc3n2)CC1` [Example 283, trans-4-({7-[(1R,9aR)-octahydro-2H-quinolizin-1-ylmethoxy]quinazolin-2-yl}amino)cyclohexanol]: the inhibition at 1 µM was found to be 33%. Still for that read-out and setting: the value for `CCOCC(C)Oc1ccc2cnc(N[C@H]3CC[C@H](O)CC3)nc2c1` (stereo partly drawn) [Example 275, trans-4-{[7-(2-ethoxy-1-methylethoxy)quinazolin-2-yl]amino}cyclohexanol] was 52%; that for `CN1CCC(Oc2cccc3cnc(N[C@H]4CC[C@H](O)CC4)nc23)CC1` [Example 254, trans-4-({8-[(1-methylpiperidin-4-yl)oxy]quinazolin-2-yl}amino)cyclohexanol] was 17%. On the same count and under the same terms, the result for `COCCOc1cccc2cnc(N[C@H]3CC[C@H](O)CC3)nc12` [Example 256, trans-4-{[8-(2-methoxyethoxy)quinazolin-2-yl]amino}cyclohexanol] reads 29%; that for `O[C@H]1CC[C@H](Nc2ncc3ccc(OC[C@@H]4CCCN4Cc4ccccc4)cc3n2)CC1` [Example 276, trans-4-[(7-{[(2S)-1-benzylpyrrolidin-2-yl]methoxy}quinazolin-2-yl)amino]cyclohexanol], 22%; that for `O=C(N[C@H]1CCN(C(=O)c2ccccc2)C1)c1cccc2cnc(N[C@H]3CC[C@H](O)CC3)nc12` [Example 517, N-(1-benzoylpyrrolidin-3-yl)-2-[(trans-4-hydroxycyclohexyl)amino]quinazoline-8-carboxamide], 16%. Still for that read-out and setting: the result for `O=C(N[C@H](CO)c1ccccc1)c1cccc2cnc(N[C@H]3CC[C@H](O)CC3)nc12` [Example 470, 2-[(trans-4-hydroxycyclohexyl)amino]-N-[(1S)-2-hydroxy-1-phenylethyl]quinazoline-8-carboxamide] reads 27%; that for `CC1(COc2ccc3cnc(N[C@H]4CC[C@H](O)CC4)nc3c2)COC1` [Example 281, trans-4-({7-[(3-methyloxetan-3-yl)methoxy]quinazolin-2-yl}amino)cyclohexanol], 72%; that for `O[C@H]1CC[C@H](Nc2ncc3ccc(O[C@@H]4CCN(Cc5ccccc5)C4)cc3n2)CC1` [Example 285, trans-4-[(7-{[(3R)-1-benzylpyrrolidin-3-yl]oxy}quinazolin-2-yl)amino]cyclohexanol], 29%. For `O=C(NCc1ccncc1)c1cccc2cnc(N[C@H]3CC[C@H](O)CC3)nc12` [Example 473, 2-[(trans-4-hydroxycyclohexyl)amino]-N-(pyridin-4-ylmethyl)quinazoline-8-carboxamide], the inhibition at 1 µM came to 34%.

Still in this experiment, the particulars now being: @10 uM; read-out: % Inhibition JNK-1.
In the case of `O=C(Nc1nccc2cccnc12)c1cccc2cnc(N[C@H]3CC[C@H](O)CC3)nc12` [Example 315, 2-[(trans-4-hydroxycyclohexyl)amino]-N-1,7-naphthyridin-8-ylquinazoline-8-carboxamide], the inhibition at 10 µM is 52%. On the same count and under the same terms, the value for `Cc1cccnc1CC(C)NC(=O)c1cccc2cnc(N[C@H]3CC[C@H](O)CC3)nc12` (stereo partly drawn) [Example 495, 2-[(trans-4-hydroxycyclohexyl)amino]-N-(1-methyl-2-(3-methylpyridin-2-yl)ethyl]quinazoline-8-carboxamide] was 76%; that for `O=C(NCc1ccc(C2CC2)cn1)c1cccc2cnc(N[C@H]3CC[C@H](O)CC3)nc12` [Example 518, N-[(5-cyclopropylpyridin-2-yl)methyl]-2-[(trans-4-hydroxycyclohexyl)amino]quinazoline-8-carboxamide] was 60%; that for `O=C(NCC1CN(C2CCC2)C(=O)CO1)c1cccc2cnc(N[C@H]3CC[C@H](O)CC3)nc12` (stereo partly drawn) [Example 526, N-[(4-cyclobutyl-5-oxomorpholin-2-yl)methyl]-2-[(trans-4-hydroxycyclohexyl)amino]quinazoline-8-carboxamide] was 41%. On the same count and under the same terms, the value for `N#Cc1cccc(CNc2cc3cc(-c4cn[nH]c4)ccc3cn2)c1` [Example 238, 3-({[6-(1H-pyrazol-4-yl)isoquinolin-3-yl]amino}methyl)benzonitrile] was 46%.

Still in this experiment, the particulars now being: JNK-1.
`CC(C)(O)c1ccc(CNC(=O)c2ccc3cnc(N[C@H]4CC[C@H](O)CC4)nc3c2)cc1` [Example 366, 2-[(trans-4-hydroxycyclohexyl)amino]-N-[4-(1-hydroxy-1-methylethyl)benzyl]quinazoline-7-carboxamide] returned a Ki of 2.17 µM. That is a single-digit micromolar value. On the same count and under the same terms, the result for `Cc1ccccc1-c1cccc2cnc(N[C@H]3CC[C@H](O)CC3)nc12` [Example 200, trans-4-{[8-(2-methylphenyl)quinazolin-2-yl]amino} cyclohexanol] reads 0.186 µM; that for `O=S(=O)(N[C@H]1CC[C@H](Nc2ncc3ccc(OC4CCOC4)cc3n2)CC1)c1ccccc1` (stereo partly drawn) [Example 165, N-(trans-4-{[7-(tetrahydrofuran-3-yloxy)quinazolin-2-yl]amino}cyclohexyl)benzenesulfonamide], 0.153 µM. Turning to `CC(=O)N[C@H]1CC[C@H](Nc2ncc3cccc(C(=O)N[C@@H]4COC[C@H]4O)c3n2)CC1` (relative stereo) [Example 140, 2-{[trans-4-(acetylamino)cyclohexyl]amino}-N-[(trans)-4-hydroxytetrahydrofuran-3-yl]quinazoline-8-carboxamide], the Ki is 0.052 µM.

Regarding `CN(C)C(=O)CNC(=O)c1ccc2cnc(N[C@H]3CC[C@H](O)CC3)nc2c1` [Example 368, N-[2-(dimethylamino)-2-oxoethyl]-2-[(trans-4-hydroxycyclohexyl)amino]quinazoline-7-carboxamide], the Ki amounted to 2.29 µM. On to `CC(C)CC(=O)Nc1cc2cc(-c3cn[nH]c3)ccc2cn1` [Example 11, 3-methyl-N-[6-(1H-pyrazol-4-yl)isoquinolin-3-yl]butanamide], for which the Ki was 0.026 µM. On the same count and under the same terms, the result for `CC(C)(N)CNC(=O)c1cccc2cnc(N[C@H]3CC[C@H](O)CC3)nc12` [Example 128, N-(2-amino-2-methylpropyl)-2-[(trans-4-hydroxycyclohexyl)amino]quinazoline-8-carboxamide] reads 3.5 µM; that for `O=C(NC1(c2ccccn2)CC1)c1cccc2cnc(N[C@H]3CC[C@H](O)CC3)nc12` [Example 462, 2-[(trans-4-hydroxycyclohexyl)amino]-N-(1-pyridin-2-ylcyclopropyl)quinazoline-8-carboxamide], 0.471 µM. Same read-out and setting: the value for `CC(C)(O)CNC(=O)c1cccc2cnc(N[C@H]3CC[C@H](O)CC3)nc12` [Example 121, 2-[(trans-4-hydroxycyclohexyl)amino]-N-(2-hydroxy-2-methylpropyl)quinazoline-8-carboxamide] was 0.169 µM. With `O=C(CC(c1ccccc1)c1ccccc1)Nc1cc2cc(-c3cn[nH]c3)ccc2cn1` [Example 55, 3,3-diphenyl-N-[6-(1H-pyrazol-4-yl)isoquinolin-3-yl]propanamide], the inhibition constant Ki turned out to be 0.005 µM. On to `C[C@H](CO)NC(=O)c1cccc2cnc(N[C@H]3CC[C@H](O)CC3)nc12` [Example 123, 2-[(trans-4-hydroxycyclohexyl)amino]-N-[(1R)-2-hydroxy-1-methylethyl]quinazoline-8-carboxamide], for which the Ki stood at 0.634 µM.

`O=C(CCc1ccc(F)cc1)Nc1cc2cc(-c3cn[nH]c3)ccc2cn1` [Example 44, 3-(4-fluorophenyl)-N-[6-(1H-pyrazol-4-yl)isoquinolin-3-yl]propanamide] had an inhibition constant (Ki) of 0.011 µM. On the same count and under the same terms, the result for `COc1ccc(CCCC(=O)Nc2cc3cc(-c4cn[nH]c4)ccc3cn2)cc1` [Example 41, 4-(4-methoxyphenyl)-N-[6-(1H-pyrazol-4-yl)isoquinolin-3-yl]butanamide] reads 0.014 µM; that for `CC(C)Nc1ncc2cccc(OC3CCOCC3)c2n1` [Example 170, N-isopropyl-8-(tetrahydro-2H-pyran-4-yloxy)quinazolin-2-amine], 2.15 µM. Still for that read-out and setting: the result for `CNC(=O)c1ccc2cnc(N[C@H]3CC[C@H](O)CC3)nc2c1` [Example 58, 2-[(trans-4-hydroxycyclohexyl)amino]-N-methylquinazoline-7-carboxamide] reads 0.261 µM. `CCn1ccnc1CNC(=O)c1ccc2cnc(N[C@H]3CC[C@H](O)CC3)nc2c1` [Example 333, N-[(1-ethyl-1H-imidazol-2-yl)methyl]-2-([trans-4-hydroxycyclohexyl)amino]quinazoline-7-carboxamide] gave a Ki of 0.455 µM. This Ki is about 1.7-fold higher than that of the molecule before. Regarding `O=C(CCc1cn2cccnc2n1)Nc1cc2cc(-c3cn[nH]c3)ccc2cn1` [Example 18, 3-imidazo[1,2-a]pyrimidin-2-yl-N-[6-(1H-pyrazol-4-yl)isoquinolin-3-yl]propanamide], the Ki was determined as 0.032 µM. Take `CS(=O)(=O)N[C@H]1CC[C@H](Nc2ncc3cccc(OC4CCOCC4)c3n2)CC1` [Example 182, N-(trans-4-{[8-(tetrahydro-2H-pyran-4-yloxy)quinazolin-2-yl]amino}cyclohexyl)methanesulfonamide]: affinity was put at a Ki of 0.146 µM. For the molecule `COC1CCC(C(=O)Nc2cc3cc(-c4cn[nH]c4)ccc3cn2)CC1` (stereo not shown) [Example 28, 4-methoxy-N-[6-(1H-pyrazol-4-yl)isoquinolin-3-yl]cyclohexanecarboxamide], affinity was put at a Ki of 0.032 µM.

`Cc1ccc2cnc(N[C@H]3CC[C@H](O)CC3)nc2c1OCC(=O)N1CCOCC1` [Example 213, trans-4-{[7-methyl-8-(2-morpholin-4-yl-2-oxoethoxy)quinazolin-2-yl]amino} cyclohexanol] showed a Ki of 0.78 µM.

For `CC(C)c1ccc(OCC(=O)Nc2cc3cc(-c4cn[nH]c4)ccc3cn2)cc1` [Example 50, 2-(4-isopropylphenoxy)-N-[6-(1H-pyrazol-4-yl)isoquinolin-3-yl]acetamide], the Ki came to 0.003 µM.
